Measured values: patent US8273768B2, “Iso CA-4 and analogues thereof as potent cytotoxic agents inhibiting tubuline polymerization” (Centre National de la Recherche Scientifique (CNRS), priority 2007, dated 2012)
Read-outs that look alike come from different tables or passages of the source.

How the values were obtained:
[1] = tested on: mouse leukemic P-388 cells; settings: cited from earlier work
[2] = molecular target: T1, purified tubulin from pig brains (Sus scrofa, UniProt P02550+P02554); experiment: Inhibition of polymerization of tubulin (turbidimetry); format: biochemical; settings: pig brain tubulin, turbidimetry at 350 nm
T1 construct: from pig brains, where it forms 20-25% of the soluble proteins; from tissue; host or cells: pig brain
Protocol: Tests relating to the inhibition of polymerization of tubulin were carried out on compounds which had the best cytotoxic activities. These tests were carried out on purified tubulin by the Shelanski method (Shelanski, M. C.; Gaskin, F.; Cantor, C. R. Proc. Natl. Acad. Sci. USA, 1973, 70, 765-768) from pig brains, where it forms 20-25% of the soluble proteins. Purification method is based on temperature-dependent assembling-disassembling cycles. Polymerization of tubulin was tracked with turbidimetry according to the Gaskin method (Gaskin, F.; Cantor, C. R.; Shelanski, M. L. J. Bio. Mol. 1974, 89, 737) at a wavelength of 350 nm. The different samples were dissolved in DMSO and incubated for 10 minutes at 37° C. and then for 5 minutes at 0° C.
The CA-4 compound and DMSO were taken as references.
The tests have shown for these compounds an activity inhibiting polymerization of tubulin similar to the one of the reference compound CA-4 (of the order of only one micromolar concentration to a few tens of micromolar concentrations).

MDA-MB 435 = experiment: Study of cytotoxicity (CellTiter-Blue, 72 hours); format: cell-based; settings: Homo sapiens, read-out: IC50 for different cell lines: M435
Protocol: (§1) The biological activity of the compounds of the invention was studied in vitro on 7 human cancer cell lines with different tissue origins (HCT116: colorectal carcinoma; K562: chronic myeloid leukemia; B16-F10: melanoma; U87: glioblastoma; A549: lung cancer and MDA-MB 231 and MDA-MB 435: breast cancer). The cells selected for the study were incubated at 37° C. in the presence of one of the compounds added into the culture medium at different concentrations. The whole of the conducted experiments allowed determination of the toxicity level of the tested compound, its effect on the course of the cell cycle as well as its capacity of inducing cell death by apoptosis.
(§2) The cancer cell lines originate from the American Type Culture Collection (Rockville, Md., USA) and were grown according to the recommendations of the supplier.
(§3) The cells A549, U87, MDA-MB231, MDA-MB435 and B16F10 were grown in a culture medium “Dulbecco minimal essential medium” (DMEM) containing 4.5 g/L of glucose and supplemented with 10% fetal calf serum and 1% glutamine. The K562 and HCT116 were grown in an RPMI 1640 medium containing 10% fetal calf serum and 1% glutamine. All the cell lines were maintained in the culture at 37° C. in a humid atmosphere containing 5% of CO2. Cell viability was evaluated by using the reagent “CellTiter-Blue™” (Promega, Wis., USA) while observing the instructions of the manufacturer. The cells were sown in 96-well culture plates with 5000 cells per well in 50 μL of culture medium. After 24 hours of culture, the compounds of general formula (I) dissolved in DMSO were individually added into each of the wells in an amount of 50 μl per well. All the compounds were tested in triplicate for each defined concentration and each experiment was repeated three times. After 72 hours of incubation, 20 μL of resazurin were added in each well. After 2 hours of incubation, the emitted fluorescence was measured at 590 nm after excitation at 560 nm by means of a fluorescence reader of the Victor type (Perkin-Elmer, USA).
(§4) The concentration of each of the compounds which induces the death of 50% of the cells (IC50) was determined after 72 hours of incubation. Certain compounds according to the invention have an IC50 of the order of one nanomolar concentration, therefore equivalent to CA-4 taken as a reference.

MDA-MB 231 = experiment: Study of cytotoxicity (CellTiter-Blue, 72 hours); format: cell-based; settings: Homo sapiens, read-out: IC50 for different cell lines: M231
Protocol: as §1, §2, §3, §4

A549 = experiment: Study of cytotoxicity (CellTiter-Blue, 72 hours); format: cell-based; settings: Homo sapiens, read-out: IC50 for different cell lines: A549
Protocol: as §1, §2, §3, §4

HCT116 = experiment: Study of cytotoxicity (CellTiter-Blue, 72 hours); format: cell-based; settings: Homo sapiens, HCT-116; 72 hours of incubation; read-out: IC50 for different cell lines: HCT116
Protocol: as §1, §2, §3, §4

U87 = experiment: Study of cytotoxicity (CellTiter-Blue, 72 hours); format: cell-based; settings: Homo sapiens, U-87 MG, read-out: IC50 for different cell lines: U87
Protocol: as §1, §2, §3, §4

[3] = tested on: mouse colon adenocarcinoma 26; settings: cited from earlier work
HCT 15 cells = settings: read-out: IC50, cytotoxic activity; cited from earlier work
[4] = tested on: human colon tumors LS174T xenografted in Nude mice; experiment: Antivascular activity in vivo (MRI, Dotarem entry into tumors); settings: LS174T xenograft, 3 hours after administration, DMXAA 27.5 mg/kg IP, (I-1) 45 mg/kg IV
Protocol: The antivascular effect of the molecule (I-1) was tested on mice bearing human tumors by comparison with the positive control DMXAA, according to the procedure described by Beauregard et al. (NMR Biomed., 2002, 15:99-105).
Thus, CD-1 Nude female mice were xenografted by subcutaneous injection of human colon tumoral cells (LS174T). The mice bearing tumors were then treated with 0.9% NaCl (carrier, 10 mL/kg), DMXAA (27.5 mg/kg) via an intraperitoneal route (IP) or the molecule (I-1) (45 mg/kg) via an intravenous route (IV). Three hours after administration, the mice were treated with the Dotarem® contrast agent intravenously (IV). The penetration of the contrast agent into the tumors was followed in real time by magnetic resonance imaging (MRI) and is expressed by an enhancement of the intensity of the signal in the tumors. Densitometric analysis of the acquired images allows determination of the maximum enhancement (Rmax) as well as the slope P0 corresponding to the entry rate of Dotarem® into the tumors.

[5] = MDA-MB-435, 72 hours of incubation
[6] = MDA-MB-231, 72 hours of incubation

T1 sequence (P02554 whole entry): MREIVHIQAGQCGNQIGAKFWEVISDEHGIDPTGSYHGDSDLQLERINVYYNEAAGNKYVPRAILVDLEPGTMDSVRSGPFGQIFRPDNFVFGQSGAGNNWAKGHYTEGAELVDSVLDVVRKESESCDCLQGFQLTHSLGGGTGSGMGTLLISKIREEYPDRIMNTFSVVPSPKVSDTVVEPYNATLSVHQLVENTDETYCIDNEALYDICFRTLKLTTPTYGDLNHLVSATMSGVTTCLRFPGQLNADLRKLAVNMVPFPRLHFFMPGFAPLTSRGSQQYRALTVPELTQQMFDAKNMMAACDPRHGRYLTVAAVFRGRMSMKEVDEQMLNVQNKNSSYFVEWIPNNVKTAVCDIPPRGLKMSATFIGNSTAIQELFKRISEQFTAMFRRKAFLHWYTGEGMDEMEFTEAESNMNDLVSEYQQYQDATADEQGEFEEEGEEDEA
T1 sequence (P02550 whole entry): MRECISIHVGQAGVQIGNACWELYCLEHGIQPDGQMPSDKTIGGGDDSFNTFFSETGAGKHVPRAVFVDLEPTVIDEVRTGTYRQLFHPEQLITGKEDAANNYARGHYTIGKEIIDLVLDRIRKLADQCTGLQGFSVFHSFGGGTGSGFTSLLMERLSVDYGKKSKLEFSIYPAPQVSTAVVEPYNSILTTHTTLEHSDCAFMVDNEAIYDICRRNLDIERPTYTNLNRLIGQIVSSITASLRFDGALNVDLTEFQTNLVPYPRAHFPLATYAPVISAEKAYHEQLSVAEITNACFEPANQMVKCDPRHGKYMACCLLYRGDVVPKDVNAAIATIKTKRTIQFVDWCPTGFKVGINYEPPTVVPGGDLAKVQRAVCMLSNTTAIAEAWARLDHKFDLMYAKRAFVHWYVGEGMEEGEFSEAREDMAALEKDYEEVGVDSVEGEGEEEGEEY

**Q.** For `COc1ccc(C=Cc2cc(OC)c(OC)c(OC)c2)cc1O` (single isomer, unassigned) [E isomer of CA-4], which “Cytotoxic activity, times weaker than the natural Z isomer” value [1] is on record?
**A.** The value was “about 60 times”.

**Q.** Which results are given for `C=C(c1ccc(OC)cc1)c1cc(OC)c(OC)c(OC)c1` [(I-2)]?
**A.** IC50 [2]: 2000 to 3300 nM; IC50 (MDA-MB 435; [5]): 25 nM; IC50 (MDA-MB 231; [6]): 40 nM; IC50 (A549; A549, 72 hours of incubation): 28 nM; IC50 (HCT116): 42 nM

**Q.** Which results are given for `C=C(c1ccc(OC)c(OC(C)=O)c1)c1cc(OC)c(OC)c(OC)c1` [(I-6)]?
**A.** IC50 (MDA-MB 435; [5]): 11 nM; IC50 (MDA-MB 231; [6]): 9 nM; IC50 (U87; 72 hours of incubation): 18 nM; IC50 (A549; A549, 72 hours of incubation): 25 nM; IC50 (HCT116): 8 nM

**Q.** With `C=C(c1ccc(OC)c(OC(=O)C(C)(C)C)c1)c1cc(OC)c(OC)c(OC)c1` [(I-7)] as the molecule, how does the IC50 (MDA-MB 435; [5]) read?
**A.** Its IC50 is 25 nM.

**Q.** What about the IC50 (MDA-MB 231; [6]) of the same molecule?
**A.** The IC50 was 50 nM.

**Q.** What about the IC50 (U87; 72 hours of incubation) of the same molecule?
**A.** The IC50 was 15 nM.

**Q.** What about the IC50 (A549; A549, 72 hours of incubation) of the same molecule?
**A.** Its IC50 is 28 nM.

**Q.** What about the IC50 (HCT116) of the same molecule?
**A.** The IC50 was 8 nM.

**Q.** For `C=C(c1ccc(OC)c(OC(=O)CCCc2ccc(N(CCCl)CCCl)cc2)c1)c1cc(OC)c(OC)c(OC)c1` [(I-8)], which IC50 (MDA-MB 435; MDA-MB-435, 72 h) is on record?
**A.** Its IC50 is 40 nM.

**Q.** What about the IC50 (MDA-MB 231; MDA-MB-231, 72 h) of the same molecule?
**A.** The IC50 was 50 nM.

**Q.** And the IC50 (U87; 72 h)?
**A.** Its IC50 is 35 nM.

**Q.** What about the IC50 (A549; A549, 72 h) of the same molecule?
**A.** The IC50 was 42 nM.

**Q.** And the IC50 (HCT116)?
**A.** The IC50 was 25 nM.

**Q.** For `C=C(c1ccc(OC)c(N)c1)c1cc(OC)c(OC)c(OC)c1` [(I-17)], which IC50 [2] is on record?
**A.** The IC50 was 1800 nM.

**Q.** And the IC50 (MDA-MB 231; [6])?
**A.** Its IC50 is 6 nM.

**Q.** What about the IC50 (A549; A549, 72 hours of incubation) of the same molecule?
**A.** The IC50 was 8 nM.

**Q.** For `C=C(c1ccc(OC)c(F)c1)c1cc(OC)c(OC)c(OC)c1` [(I-22)], which IC50 [2] is on record?
**A.** Its IC50 is 4100 nM.

**Q.** What about the IC50 (HCT116) of the same molecule?
**A.** The IC50 was 7 nM.

**Q.** Which IC50 (HCT116) does the source give for `C=C(c1ccc(OC)c(OC(=O)[C@@H](COC(C)(C)C)NC(=O)OCC2c3ccccc3-c3ccccc32)c1)c1cc(OC)c(OC)c(OC)c1` [(I-32)] here?
**A.** Its IC50 is 8 nM.

**Q.** Which IC50 (HCT116) does the source give for `C=C(c1ccc(OC)c(OC(=O)c2ccncc2)c1)c1cc(OC)c(OC)c(OC)c1` [(I-34)] here?
**A.** Its IC50 is 3 nM.

**Q.** For `C=C(c1ccc(OC)c(OC(=O)CCC(=O)O)c1)c1cc(OC)c(OC)c(OC)c1` [(I-35)], which IC50 (HCT116) is on record?
**A.** Its IC50 is 5 nM.

**Q.** For `C=C(c1ccc(OC)c(OC(=O)CN(C)C)c1)c1cc(OC)c(OC)c(OC)c1` [(I-36)], which IC50 (HCT116) is on record?
**A.** The IC50 was 3 nM.

**Q.** With `C=C(c1ccc(OC)c(OC(=O)Cc2cccc3c(=O)c4ccc(C)c(C)c4oc23)c1)c1cc(OC)c(OC)c(OC)c1` [(I-45)] as the molecule, how does the IC50 (HCT116) read?
**A.** The IC50 was 7 nM.

**Q.** What does the source list for `COc1ccc(/C=C\c2cc(OC)c(OC)c(OC)c2)cc1O` [CA-4, combrestatatin A-4]?
**A.** Antitumoral activity in vivo [3]: no antitumoral activity is observed; IC50 (HCT 15 cells): 0.9 nM

**Q.** For `Cc1ccc2c(=O)c3cccc(CC(=O)O)c3oc2c1C` [DMXAA, 5,6-dimethylxanthenone-4-acetic acid, reference compound], which “Average of P0” value [4] is on record?
**A.** Its value is 0.50±0.40 arbitrary unit.

**Q.** What about the “Average of Rmax” value [4] of the same molecule?
**A.** The value was 26.58±21.19 % of the NaCl control.
